SMILES strings stand for the structures.

The data set in a line: Dissociation constant by non-linear regression analysis. Format: physicochemical.
Regarding `CC(=O)N[C@@H]1[C@H](O[C@H]2C[C@H](C(=O)OC(C)(C)C)[C@@H](C(=O)OC(C)(C)C)C[C@H]2O[C@H](C)C(=O)O)O[C@@H](CO)[C@H](O)[C@@H]1O[C@@H]1O[C@@H](CO)[C@H](O)[C@H](O)[C@@H]1O`, binding was put at a Kd of 190 µM.
The value for `CC(=O)N[C@@H]1[C@H](O[C@H]2C[C@H](C(=O)OC(C)(C)C)[C@@H](C(=O)OC(C)(C)C)C[C@H]2O[C@H](CC2CCCCC2)C(=O)O)O[C@@H](CO)[C@H](O)[C@@H]1O[C@@H]1O[C@@H](CO)[C@H](O)[C@H](O)[C@@H]1O` was 45 µM; that for `CC(=O)N[C@@H]1[C@H](O[C@H]2C[C@H](C(=O)OC(C)(C)C)[C@@H](C(=O)OC(C)(C)C)C[C@H]2O[C@H](Cc2ccccc2)C(=O)O)O[C@@H](CO)[C@H](O)[C@@H]1O[C@@H]1O[C@@H](CO)[C@H](O)[C@H](O)[C@@H]1O` was 10 µM.

The values are drawn from ChEMBL document CHEMBL1144982, “Ganglioside GM1 mimics: lipophilic substituents improve affinity for cholera toxin” (Bioorg Med Chem Lett, 2003).
